Data taken from ChEMBL document CHEMBL1201862, “PubChem BioAssay data set” (2004).
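Tested at 5 concentrations; 48 h exposure; 96-well plates; endpoints linearly interpolated, else capped at highest concentration. GI50 marks 50% less growth.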 Active and inactive are the calls of the source. No stated cut-off is given here; in the data, active = GI50 up to about 1.1 µM and inactive = higher.

How the values were obtained:
Experiment in all cases: NCI tumour cell line growth inhibition, 48 h
SNB-75 = system: SNB-75
Hs-578T = system: Hs-578T
NCI-H226 = system: NCI-H226
OVCAR-3 = system: OVCAR-3
UACC-257 = system: UACC-257
SK-MEL-5 = system: SK-MEL-5
Malme-3M = system: Malme-3M
SW-620 = system: SW-620
HOP-92 = system: HOP-92
KM12 = system: KM12
MOLT-4 = system: MOLT-4
K562 = system: K562
OVCAR-8 = system: OVCAR-8
HCC 2998 = system: HCC 2998
OVCAR-4 = system: OVCAR-4
SK-MEL-2 = system: SK-MEL-2
NCI-H23 = system: NCI-H23
T47D = system: T47D
SK-OV-3 = system: SK-OV-3
OVCAR-5 = system: OVCAR-5
RXF 393 = system: RXF 393
LOX IMVI = system: LOX IMVI
SF-539 = system: SF-539
COLO 205 = system: COLO 205
MDA-N = system: MDA-N
A549 = system: A549
MDA-MB-231 = system: MDA-MB-231
CAKI-1 = system: CAKI-1
SK-MEL-28 = system: SK-MEL-28
SNB-19 = system: SNB-19
EKVX = system: EKVX
RPMI-8226 = system: RPMI-8226
UO-31 = system: UO-31
SF-268 = system: SF-268
NCI-H460 = system: NCI-H460
ACHN = system: ACHN
UACC-62 = system: UACC-62
SF-295 = system: SF-295
786-0 = system: 786-0
U-251 = system: U-251
HOP-62 = system: HOP-62
A498 = system: A498
HL-60 = system: HL-60
HT-29 = system: HT-29
NCI-H522 = system: NCI-H522
SN12C = system: SN12C
SR = system: SR
DU-145 = system: DU-145
IGROV-1 = system: IGROV-1
M14 = system: M14
MCF7 = system: MCF7
HCT-116 = system: HCT-116
PC-3 = system: PC-3
TK-10 = system: TK-10
NCI/ADR-RES = system: NCI/ADR-RES
MDA-MB-435 = system: MDA-MB-435
HCT-15 = system: HCT-15
CCRF-CEM = system: CCRF-CEM

Question: With `COc1ccccc1N(CN1C(=O)CCC1C(=O)O)C(C)=O` (stereo not given) as the compound, how does the GI50 (SNB-75) read?
Answer: > 100000 nM (inactive)

Question: What about the GI50 (Hs-578T) of the same compound?
Answer: > 100000 nM (inactive)

Question: And the GI50 (NCI-H226)?
Answer: > 100000 nM (inactive)

Question: What about the GI50 (OVCAR-3) of the same compound?
Answer: > 100000 nM (inactive)

Question: And the GI50 (UACC-257)?
Answer: > 100000 nM (inactive)

Question: What about the GI50 (SK-MEL-5) of the same compound?
Answer: > 100000 nM (inactive)

Question: And the GI50 (Malme-3M)?
Answer: > 100000 nM (inactive)

Question: What about the GI50 (SW-620) of the same compound?
Answer: > 100000 nM (inactive)

Question: What about the GI50 (HOP-92) of the same compound?
Answer: > 100000 nM (inactive)

Question: And the GI50 (KM12)?
Answer: > 100000 nM (inactive)

Question: And the GI50 (MOLT-4)?
Answer: > 100000 nM (inactive)

Question: What about the GI50 (K562) of the same compound?
Answer: > 100000 nM (inactive)

Question: And the GI50 (OVCAR-8)?
Answer: > 100000 nM (inactive)

Question: And the GI50 (HCC 2998)?
Answer: > 100000 nM (inactive)

Question: What about the GI50 (OVCAR-4) of the same compound?
Answer: > 100000 nM (inactive)

Question: What about the GI50 (SK-MEL-2) of the same compound?
Answer: > 100000 nM (inactive)

Question: What about the GI50 (NCI-H23) of the same compound?
Answer: > 100000 nM (inactive)

Question: What about the GI50 (T47D) of the same compound?
Answer: > 100000 nM (inactive)

Question: What about the GI50 (SK-OV-3) of the same compound?
Answer: > 100000 nM (inactive)

Question: And the GI50 (OVCAR-5)?
Answer: > 100000 nM (inactive)

Question: What about the GI50 (RXF 393) of the same compound?
Answer: 74500 nM (inactive)

Question: And the GI50 (LOX IMVI)?
Answer: > 100000 nM (inactive)

Question: And the GI50 (SF-539)?
Answer: > 100000 nM (inactive)

Question: What about the GI50 (COLO 205) of the same compound?
Answer: > 100000 nM (inactive)

Question: And the GI50 (MDA-N)?
Answer: > 100000 nM (inactive)

Question: What about the GI50 (A549) of the same compound?
Answer: > 100000 nM (inactive)

Question: What about the GI50 (MDA-MB-231) of the same compound?
Answer: > 100000 nM (inactive)

Question: And the GI50 (CAKI-1)?
Answer: > 100000 nM (inactive)

Question: And the GI50 (SK-MEL-28)?
Answer: > 100000 nM (inactive)

Question: And the GI50 (SNB-19)?
Answer: > 100000 nM (inactive)

Question: And the GI50 (EKVX)?
Answer: > 100000 nM (inactive)

Question: What about the GI50 (RPMI-8226) of the same compound?
Answer: > 100000 nM (inactive)

Question: What about the GI50 (UO-31) of the same compound?
Answer: > 100000 nM (inactive)

Question: What about the GI50 (SF-268) of the same compound?
Answer: 53000 nM (inactive)

Question: What about the GI50 (NCI-H460) of the same compound?
Answer: > 100000 nM (inactive)

Question: And the GI50 (ACHN)?
Answer: > 100000 nM (inactive)

Question: What about the GI50 (UACC-62) of the same compound?
Answer: > 100000 nM (inactive)

Question: What about the GI50 (SF-295) of the same compound?
Answer: > 100000 nM (inactive)

Question: And the GI50 (786-0)?
Answer: > 100000 nM (inactive)

Question: What about the GI50 (U-251) of the same compound?
Answer: > 100000 nM (inactive)

Question: And the GI50 (HOP-62)?
Answer: > 100000 nM (inactive)

Question: And the GI50 (A498)?
Answer: > 100000 nM (inactive)

Question: And the GI50 (HL-60)?
Answer: > 100000 nM (inactive)

Question: And the GI50 (HT-29)?
Answer: > 100000 nM (inactive)

Question: And the GI50 (NCI-H522)?
Answer: > 100000 nM (inactive)

Question: What about the GI50 (SN12C) of the same compound?
Answer: > 100000 nM (inactive)

Question: What about the GI50 (SR) of the same compound?
Answer: 72600 nM (inactive)

Question: And the GI50 (DU-145)?
Answer: > 100000 nM (inactive)

Question: And the GI50 (IGROV-1)?
Answer: 138 nM (active)

Question: And the GI50 (M14)?
Answer: > 100000 nM (inactive)

Question: And the GI50 (MCF7)?
Answer: > 100000 nM (inactive)

Question: And the GI50 (HCT-116)?
Answer: > 100000 nM (inactive)

Question: And the GI50 (PC-3)?
Answer: > 100000 nM (inactive)

Question: And the GI50 (TK-10)?
Answer: > 100000 nM (inactive)

Question: What about the GI50 (NCI/ADR-RES) of the same compound?
Answer: > 100000 nM (inactive)

Question: And the GI50 (MDA-MB-435)?
Answer: > 100000 nM (inactive)

Question: What about the GI50 (HCT-15) of the same compound?
Answer: > 100000 nM

Question: `COc1c2c3c4c(c(OC)c(=O)c5c(O)cc(OC)c(c6c(OC)cc(O)c(c1=O)c63)c54)C(C(C)O)C2C(C)O` (stereo not given) was tested. Which GI50 (SNB-75) did it give?
Answer: 518 nM (active)

Question: What about the GI50 (Hs-578T) of the same compound?
Answer: 855 nM (active)

Question: What about the GI50 (NCI-H226) of the same compound?
Answer: 796 nM (active)

Question: And the GI50 (OVCAR-3)?
Answer: 871 nM (active)

Question: What about the GI50 (UACC-257) of the same compound?
Answer: 792 nM (active)

Question: And the GI50 (SK-MEL-5)?
Answer: 240 nM (active)

Question: And the GI50 (Malme-3M)?
Answer: 1170 nM (inactive)

Question: And the GI50 (SW-620)?
Answer: 522 nM (active)

Question: What about the GI50 (HOP-92) of the same compound?
Answer: 421 nM (active)

Question: And the GI50 (KM12)?
Answer: 873 nM (active)

Question: And the GI50 (MOLT-4)?
Answer: 505 nM (active)

Question: What about the GI50 (K562) of the same compound?
Answer: 387 nM (active)

Question: What about the GI50 (OVCAR-8) of the same compound?
Answer: 449 nM (active)

Question: And the GI50 (HCC 2998)?
Answer: 431 nM (active)

Question: What about the GI50 (OVCAR-4) of the same compound?
Answer: 1320 nM (inactive)

Question: What about the GI50 (SK-MEL-2) of the same compound?
Answer: 1230 nM (inactive)

Question: And the GI50 (NCI-H23)?
Answer: 798 nM (active)

Question: And the GI50 (T47D)?
Answer: 1180 nM (inactive)

Question: And the GI50 (SK-OV-3)?
Answer: 1310 nM (inactive)

Question: What about the GI50 (OVCAR-5) of the same compound?
Answer: 1280 nM (inactive)

Question: What about the GI50 (RXF 393) of the same compound?
Answer: 471 nM (active)

Question: And the GI50 (LOX IMVI)?
Answer: 883 nM (active)

Question: What about the GI50 (SF-539) of the same compound?
Answer: 796 nM (active)

Question: And the GI50 (COLO 205)?
Answer: 789 nM (active)

Question: And the GI50 (MDA-N)?
Answer: 767 nM (active)

Question: What about the GI50 (A549) of the same compound?
Answer: 735 nM (active)

Question: What about the GI50 (MDA-MB-231) of the same compound?
Answer: 1840 nM (inactive)

Question: And the GI50 (CAKI-1)?
Answer: 530 nM (active)

Question: And the GI50 (SK-MEL-28)?
Answer: 953 nM (active)

Question: And the GI50 (SNB-19)?
Answer: 830 nM (active)

Question: What about the GI50 (EKVX) of the same compound?
Answer: 944 nM (active)

Question: And the GI50 (RPMI-8226)?
Answer: 706 nM (active)

Question: And the GI50 (UO-31)?
Answer: 390 nM (active)

Question: And the GI50 (SF-268)?
Answer: 1070 nM (active)

Question: What about the GI50 (NCI-H460) of the same compound?
Answer: 345 nM (active)

Question: And the GI50 (ACHN)?
Answer: 811 nM (active)

Question: And the GI50 (UACC-62)?
Answer: 953 nM (active)

Question: What about the GI50 (SF-295) of the same compound?
Answer: 562 nM (active)

Question: And the GI50 (CCRF-CEM)?
Answer: 542 nM (active)

Question: What about the GI50 (786-0) of the same compound?
Answer: 789 nM (active)

Question: What about the GI50 (U-251) of the same compound?
Answer: 405 nM (active)

Question: What about the GI50 (HOP-62) of the same compound?
Answer: 689 nM (active)

Question: And the GI50 (A498)?
Answer: 918 nM (active)

Question: What about the GI50 (HL-60) of the same compound?
Answer: 392 nM (active)

Question: What about the GI50 (HT-29) of the same compound?
Answer: 1160 nM (inactive)

Question: And the GI50 (NCI-H522)?
Answer: 415 nM (active)

Question: And the GI50 (SN12C)?
Answer: 920 nM (active)

Question: And the GI50 (SR)?
Answer: 1310 nM (inactive)

Question: And the GI50 (DU-145)?
Answer: 2430 nM (inactive)

Question: What about the GI50 (IGROV-1) of the same compound?
Answer: 853 nM (active)

Question: What about the GI50 (M14) of the same compound?
Answer: 1070 nM (active)

Question: And the GI50 (MCF7)?
Answer: 1030 nM (active)

Question: What about the GI50 (HCT-116) of the same compound?
Answer: 847 nM (active)

Question: What about the GI50 (PC-3) of the same compound?
Answer: 594 nM (active)

Question: And the GI50 (TK-10)?
Answer: 1720 nM (inactive)

Question: And the GI50 (NCI/ADR-RES)?
Answer: 923 nM (active)

Question: What about the GI50 (MDA-MB-435) of the same compound?
Answer: 670 nM (active)

Question: And the GI50 (HCT-15)?
Answer: 1200 nM
